EC50 and Activity data for 9 compounds are collected here from ChEMBL document CHEMBL5050840, “3-(1-oxoisoindolin-2-yl)piperidine-2,6-dione derivatives and uses thereof” (2021).

The nature of assay [1]: Induction of IKZF2 degradation in human GripTite 293 MSR cells assessed as reduction in IKZF2 level measured by PathHunter assay. The format is cell-based.
For a further assay, the system named is GripTite 293 MSR. The experiment in a line: Induction of IKZF2 degradation in human GripTite 293 MSR cells at 10 uM assessed as reduction in IKZF2 level measured by PathHunter assay relative to control. The format is cell-based. Also on record: scale not given: the % may be the effect or the level left.
Assay [2] has as its system PBMC. The experiment in a line: Effect of compound on human PBMCs at 10 uM assessed as decrease in CD4+ T cells proliferation. The assay is classed as functional, cell-based.
Assay [3] has as its system PBMC. The experiment in a line: Effect of compound on human PBMCs at 10 uM assessed as fold increase in IL-2 producing cells. The assay is classed as functional, cell-based.

The source made the active and inactive calls. The rule behind the calls is not given here.

Consider `CC(c1ccccc1)N1CCC(c2ccc3c(c2)CN(C2CCC(=O)NC2=O)C3=O)CC1` (single isomer, unassigned), for which the EC50 in assay [1] amounted to 9 nM.

For the compound `O=C1CCC(N2Cc3cc(C4CCN(C(CO)c5ccccc5)CC4)ccc3C2=O)C(=O)N1` (single isomer, unassigned), in assay [1], the half-maximal effective concentration (EC50) stood at 850 nM.

With `O=C1CCC(N2Cc3cc(C4CCN([C@@H](CO)c5ccccc5)CC4)ccc3C2=O)C(=O)N1` (single isomer, unassigned), the EC50 in assay [1] is 590 nM.

Regarding `O=C1CCC(N2Cc3cc(C4CCCN(Cc5ccccc5)CC4)ccc3C2=O)C(=O)N1` (single isomer, unassigned; form 2), the half-maximal effective concentration (EC50) in assay [1] was found to be 210 nM.

With `CC(c1ccccc1)N1CCC(c2ccc3c(c2)CN(C2CCC(=O)NC2=O)C3=O)CC1` (racemic), the concentration for a half-maximal effect (EC50) in assay [1] amounted to 7 nM.

With `O=C1CCC(N2Cc3cc(C4CCCN(Cc5ccccc5)CC4)ccc3C2=O)C(=O)N1` (single isomer, unassigned; form 1), the concentration for a half-maximal effect (EC50) in assay [1] was determined as 170 nM.

As for `CN1CC=C(c2ccc3c(c2)CN(C2CCC(=O)NC2=O)C3=O)CC1` (stereo not given), the Activity in the assay with GripTite 293 MSR was 35%.

On to `O=C1CCC(N2Cc3cc(C4CCN(Cc5ccccc5)CC4)ccc3C2=O)C(=O)N1` (stereo not given), for which the result in the assay with PBMC [2] and in the assay with PBMC [3] was Active.

For `C[C@H](c1ccccc1)N1CCC(c2ccc3c(c2)CN(C2CCC(=O)NC2=O)C3=O)CC1` (single isomer, unassigned), in assay [1], the EC50 stood at 17 nM.

For orientation: EC50 means the concentration at which the effect is half-maximal.
